The values below are quoted from earlier work in US6365180B1, “Oral liquid compositions” (priority 1998, dated 2002).

The conditions of this data set: enteric coated tablet versus aqueous solution.

As for `O=C(O)Cc1ccccc1Nc1c(Cl)cccc1Cl` [sodium diclofenac], the oral bioavailability entry was “more orally bioavailable from an enteric coated tablet than from an aqueous solution”.
